# Columns and labels:
# cycooxygenase-2 (COX2) = cycooxygenase-2 (COX2) (Homo sapiens, UniProt P35354); assay: Enzyme characterization panel: COX2; assay type: biochemical; settings: data not shown
# conscious dog = assay: Safety pharmacology, cardiovascular, conscious dog; assay type: in vivo; settings: supra-pharmacological doses
# [1] = biological target: Glycine (strychnine-sensitive) (Rattus norvegicus, UniProt P07727); assay: Receptor characterization panel: glycine receptor binding; settings: read-out: 10 μM CR4056 (% effect), inhibition of specific binding
# [2] = test system: capsaicin-induced neurogenic/inflammatory pain in rats; assay: Capsaicin-induced mechanical hyperalgesia; assay type: in vivo; settings: rat
# D2 = D2 (Rattus norvegicus, UniProt P61169); assay: Receptor characterization panel: D2 binding; settings: read-out: 10 μM CR4056 (% effect), inhibition of specific binding
# [3] = biological target: catechol-O-methyl transferase (COMT) (Homo sapiens, UniProt P21964); assay: Enzyme characterization panel: COMT; assay type: biochemical; settings: data not shown
# rats = assay: Diuretic effect in rats; assay type: in vivo, rat; settings: pharmacological/toxicological dose range
# human recombinant MAO-B = biological target: T1, human recombinant MAO-B (Homo sapiens, UniProt P27338); assay: Human recombinant MAO-B functional assay; assay type: biochemical
# T1 sequence (P27338 1-520): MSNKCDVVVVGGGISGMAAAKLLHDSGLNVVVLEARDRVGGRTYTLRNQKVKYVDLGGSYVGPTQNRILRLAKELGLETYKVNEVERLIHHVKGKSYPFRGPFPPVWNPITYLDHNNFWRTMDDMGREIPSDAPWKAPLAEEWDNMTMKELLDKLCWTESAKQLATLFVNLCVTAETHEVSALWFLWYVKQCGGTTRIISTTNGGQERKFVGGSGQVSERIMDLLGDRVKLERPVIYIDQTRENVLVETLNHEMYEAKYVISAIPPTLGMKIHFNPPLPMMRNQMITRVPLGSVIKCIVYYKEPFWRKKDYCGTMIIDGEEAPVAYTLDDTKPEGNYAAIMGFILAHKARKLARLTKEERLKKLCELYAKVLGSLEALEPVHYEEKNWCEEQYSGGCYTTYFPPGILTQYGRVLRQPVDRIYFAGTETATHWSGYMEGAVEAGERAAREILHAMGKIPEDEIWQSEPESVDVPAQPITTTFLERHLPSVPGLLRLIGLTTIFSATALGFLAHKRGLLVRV
# [4] = test system: locomotor activity of rats; assay: Open field test; assay type: in vivo; settings: rat; 3–30 mg/kg oral, one hour after administration
# [5] = test system: neuromuscular coordination of rats; assay: Rotarod test; assay type: in vivo; settings: rat; oral 3–30 mg/kg
# [6] = biological target: inducible NO synthase (iNOS) (Homo sapiens, UniProt P35228); assay: Enzyme characterization panel: iNOS; assay type: biochemical; settings: data not shown
# 5-HT3 = 5-HT3 (Rattus norvegicus, UniProt P35563); assay: Receptor characterization panel: 5-HT3 binding; settings: read-out: 10 μM CR4056 (% effect), inhibition of specific binding
# [7] = test system: endogenous norepinephrine (NE) levels; assay: In vivo quantification of endogenous norepinephrine tissue levels; settings: rat
# [8] = test system: acid-induced muscle allodynia in rats; assay: Acid-induced muscle allodynia; assay type: in vivo; settings: rat; for Mechanical threshold (grams) ± SEM, left paw (SX) / Mechanical threshold (grams) ± SEM, right paw (DX): day 6 after treatment, OS
# I2 = assay: Receptor characterization panel: I2 binding; settings: 10 μM; [3H]Idazoxan (+1 μM yohimbine); cerebral cortex/rat
# conscious rat = assay: Safety pharmacology, respiratory, conscious rat; assay type: in vivo; settings: supra-pharmacological doses
# I1 = I1 (Bos taurus, UniProt F1N322); assay: Receptor characterization panel: I1 binding; design: species or system bovine; settings: read-out: 10 μM CR4056 (% effect), inhibition of specific binding
# imidazoline I2 receptor = assay: [3H]2-BFI binding to imidazoline I2 receptors in rat whole-brain membranes; settings: read-out: IC50, nM, [3H]2-BFI binding to the imidazoline I2 receptor; Table S2; rat whole brain membranes, […] [3H]2-BFI, 90 minutes at 25°C; mean ± SEM
# TNF-α converting enzyme = TNF-α converting enzyme (Homo sapiens, UniProt P78536); assay: Enzyme characterization panel: TNF-α converting enzyme; assay type: biochemical; settings: data not shown
# carbonic anhydrase II = carbonic anhydrase II (Homo sapiens, UniProt P00918); assay: Enzyme characterization panel: carbonic anhydrase II; assay type: biochemical; settings: data not shown
# BDZ (central) = assay: Receptor characterization panel: central BDZ binding; settings: 10 μM; [3H]Flunitrazepam; cerebral cortex/rat
# PI 3-Kβ = PI 3-Kβ (Homo sapiens, UniProt P42338); assay: Enzyme characterization panel: PI 3-Kβ; assay type: biochemical; settings: data not shown
# human recombinant MAO-A = human recombinant MAO-A (Homo sapiens, UniProt P21397); assay: Human recombinant MAO-A functional assay; assay type: biochemical
# MAO-B = biological target: T2, MAO-B (Rattus norvegicus, UniProt P19643); assay: MAO-B binding
# T2 sequence (P19643 1-520): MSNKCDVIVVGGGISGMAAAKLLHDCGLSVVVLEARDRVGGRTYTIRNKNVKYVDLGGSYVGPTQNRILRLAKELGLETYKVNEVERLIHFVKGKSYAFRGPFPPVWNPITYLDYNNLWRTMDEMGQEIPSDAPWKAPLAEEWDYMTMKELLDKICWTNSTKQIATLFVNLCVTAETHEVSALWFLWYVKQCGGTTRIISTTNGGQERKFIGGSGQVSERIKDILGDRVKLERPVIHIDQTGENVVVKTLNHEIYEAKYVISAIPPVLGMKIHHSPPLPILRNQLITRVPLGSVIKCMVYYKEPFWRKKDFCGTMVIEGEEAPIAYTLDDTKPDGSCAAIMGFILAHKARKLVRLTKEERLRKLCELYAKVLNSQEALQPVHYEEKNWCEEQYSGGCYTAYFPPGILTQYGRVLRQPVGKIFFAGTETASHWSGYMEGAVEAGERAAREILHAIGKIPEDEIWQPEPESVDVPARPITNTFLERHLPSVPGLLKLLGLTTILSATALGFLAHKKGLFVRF
# human mTOR kinase = human mTOR kinase (Homo sapiens, UniProt P42345); assay: Enzyme characterization panel: mTOR kinase; assay type: biochemical; settings: data not shown
# [9] = sub-chronic (four days) oral 20 mg/kg once daily, versus vehicle
# Chain of Glycine (strychnine-sensitive) (P07727 29-457): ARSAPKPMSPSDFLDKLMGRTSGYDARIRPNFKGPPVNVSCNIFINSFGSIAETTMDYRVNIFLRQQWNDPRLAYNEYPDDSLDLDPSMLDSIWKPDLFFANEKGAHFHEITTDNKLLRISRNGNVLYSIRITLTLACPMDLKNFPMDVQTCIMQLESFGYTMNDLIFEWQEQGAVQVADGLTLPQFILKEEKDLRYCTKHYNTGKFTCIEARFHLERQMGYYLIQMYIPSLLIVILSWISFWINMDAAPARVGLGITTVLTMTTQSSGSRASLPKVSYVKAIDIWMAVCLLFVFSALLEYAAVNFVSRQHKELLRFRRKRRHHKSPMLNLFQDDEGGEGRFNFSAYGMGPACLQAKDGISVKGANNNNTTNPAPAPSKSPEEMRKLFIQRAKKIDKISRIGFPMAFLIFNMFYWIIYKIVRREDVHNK
# Chain of Glycine (strychnine-sensitive) (P20781 23-496 partner): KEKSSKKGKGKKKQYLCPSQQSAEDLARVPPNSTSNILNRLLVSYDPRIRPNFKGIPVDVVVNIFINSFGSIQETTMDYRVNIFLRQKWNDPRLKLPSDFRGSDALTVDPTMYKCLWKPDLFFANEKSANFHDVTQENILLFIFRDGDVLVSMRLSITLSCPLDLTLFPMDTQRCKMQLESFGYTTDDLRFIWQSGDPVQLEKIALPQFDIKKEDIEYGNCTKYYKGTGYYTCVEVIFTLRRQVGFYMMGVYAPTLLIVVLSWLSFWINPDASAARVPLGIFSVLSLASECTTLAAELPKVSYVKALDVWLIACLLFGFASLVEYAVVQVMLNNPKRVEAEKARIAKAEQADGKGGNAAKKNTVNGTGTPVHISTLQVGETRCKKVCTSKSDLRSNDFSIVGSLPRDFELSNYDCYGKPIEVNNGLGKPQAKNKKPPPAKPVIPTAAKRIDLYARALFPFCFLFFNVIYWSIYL
# Chain of cycooxygenase-2 (COX2) (P35354 18-604): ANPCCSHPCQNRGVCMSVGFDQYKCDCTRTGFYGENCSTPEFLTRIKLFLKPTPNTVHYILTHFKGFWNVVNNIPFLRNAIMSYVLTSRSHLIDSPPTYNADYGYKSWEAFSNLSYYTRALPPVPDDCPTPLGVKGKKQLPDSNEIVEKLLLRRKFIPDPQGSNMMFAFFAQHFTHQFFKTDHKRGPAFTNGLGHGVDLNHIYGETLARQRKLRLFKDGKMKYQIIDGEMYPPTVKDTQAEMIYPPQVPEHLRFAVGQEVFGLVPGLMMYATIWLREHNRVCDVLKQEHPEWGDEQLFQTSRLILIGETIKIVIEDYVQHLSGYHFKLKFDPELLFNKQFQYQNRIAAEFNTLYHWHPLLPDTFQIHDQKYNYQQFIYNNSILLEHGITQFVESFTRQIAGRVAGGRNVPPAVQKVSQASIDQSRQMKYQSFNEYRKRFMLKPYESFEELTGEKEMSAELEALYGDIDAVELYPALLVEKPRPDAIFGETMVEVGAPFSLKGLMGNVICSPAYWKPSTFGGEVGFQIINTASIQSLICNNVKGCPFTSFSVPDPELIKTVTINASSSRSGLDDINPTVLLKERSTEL
# Chain of I1 (F1N322 1-1508): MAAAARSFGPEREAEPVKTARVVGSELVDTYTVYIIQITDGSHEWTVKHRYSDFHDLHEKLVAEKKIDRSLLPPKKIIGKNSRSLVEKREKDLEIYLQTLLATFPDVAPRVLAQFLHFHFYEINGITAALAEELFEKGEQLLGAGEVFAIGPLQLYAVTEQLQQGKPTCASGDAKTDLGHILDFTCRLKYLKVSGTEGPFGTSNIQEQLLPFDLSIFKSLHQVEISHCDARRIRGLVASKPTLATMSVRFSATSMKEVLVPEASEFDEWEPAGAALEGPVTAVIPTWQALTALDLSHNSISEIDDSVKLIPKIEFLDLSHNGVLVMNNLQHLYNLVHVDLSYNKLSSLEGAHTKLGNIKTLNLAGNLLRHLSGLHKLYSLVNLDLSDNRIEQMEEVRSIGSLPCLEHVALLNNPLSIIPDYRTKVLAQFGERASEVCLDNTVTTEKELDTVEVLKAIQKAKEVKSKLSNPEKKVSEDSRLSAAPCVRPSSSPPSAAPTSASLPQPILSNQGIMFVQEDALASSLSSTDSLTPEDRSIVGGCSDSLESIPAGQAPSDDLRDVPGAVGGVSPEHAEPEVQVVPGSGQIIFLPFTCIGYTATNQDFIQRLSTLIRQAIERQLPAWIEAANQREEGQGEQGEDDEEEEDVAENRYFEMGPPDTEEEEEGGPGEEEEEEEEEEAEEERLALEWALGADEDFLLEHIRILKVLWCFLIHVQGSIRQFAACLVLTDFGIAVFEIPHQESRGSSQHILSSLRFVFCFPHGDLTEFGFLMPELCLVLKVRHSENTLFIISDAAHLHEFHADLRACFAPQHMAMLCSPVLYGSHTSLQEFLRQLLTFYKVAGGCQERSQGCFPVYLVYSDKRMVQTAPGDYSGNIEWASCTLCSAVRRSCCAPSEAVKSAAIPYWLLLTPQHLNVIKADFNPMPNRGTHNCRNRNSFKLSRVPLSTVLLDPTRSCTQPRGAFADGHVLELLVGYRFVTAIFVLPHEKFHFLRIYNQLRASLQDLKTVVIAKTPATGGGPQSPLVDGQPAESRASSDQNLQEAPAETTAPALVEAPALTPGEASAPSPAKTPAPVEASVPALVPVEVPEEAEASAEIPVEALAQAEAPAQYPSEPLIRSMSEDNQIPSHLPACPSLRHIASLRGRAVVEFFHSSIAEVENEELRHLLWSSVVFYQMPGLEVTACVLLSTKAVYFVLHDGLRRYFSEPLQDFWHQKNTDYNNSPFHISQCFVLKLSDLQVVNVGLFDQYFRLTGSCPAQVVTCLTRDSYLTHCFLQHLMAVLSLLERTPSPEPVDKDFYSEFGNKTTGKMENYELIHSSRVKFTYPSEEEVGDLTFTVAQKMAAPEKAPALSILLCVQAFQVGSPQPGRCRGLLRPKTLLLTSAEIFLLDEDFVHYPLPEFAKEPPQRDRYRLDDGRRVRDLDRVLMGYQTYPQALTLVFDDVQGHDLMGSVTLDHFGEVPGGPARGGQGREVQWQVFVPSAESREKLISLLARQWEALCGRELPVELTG
# Chain of human recombinant MAO-A (P21397 whole entry): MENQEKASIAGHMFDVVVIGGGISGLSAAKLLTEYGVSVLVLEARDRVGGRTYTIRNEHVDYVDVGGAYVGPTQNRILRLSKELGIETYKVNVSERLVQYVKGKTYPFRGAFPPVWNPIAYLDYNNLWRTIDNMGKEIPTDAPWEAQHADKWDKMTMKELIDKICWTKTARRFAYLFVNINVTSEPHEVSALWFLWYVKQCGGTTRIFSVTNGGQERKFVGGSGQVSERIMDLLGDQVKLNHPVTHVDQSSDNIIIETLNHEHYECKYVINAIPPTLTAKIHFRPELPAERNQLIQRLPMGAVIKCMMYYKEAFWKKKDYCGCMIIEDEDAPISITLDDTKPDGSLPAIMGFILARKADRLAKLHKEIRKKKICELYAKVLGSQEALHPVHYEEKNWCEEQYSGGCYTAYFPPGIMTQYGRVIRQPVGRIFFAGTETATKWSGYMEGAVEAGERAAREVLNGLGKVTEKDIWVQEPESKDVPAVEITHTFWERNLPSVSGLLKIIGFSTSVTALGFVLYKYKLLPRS
# Chain of TNF-α converting enzyme (P78536 215-824, species assumed): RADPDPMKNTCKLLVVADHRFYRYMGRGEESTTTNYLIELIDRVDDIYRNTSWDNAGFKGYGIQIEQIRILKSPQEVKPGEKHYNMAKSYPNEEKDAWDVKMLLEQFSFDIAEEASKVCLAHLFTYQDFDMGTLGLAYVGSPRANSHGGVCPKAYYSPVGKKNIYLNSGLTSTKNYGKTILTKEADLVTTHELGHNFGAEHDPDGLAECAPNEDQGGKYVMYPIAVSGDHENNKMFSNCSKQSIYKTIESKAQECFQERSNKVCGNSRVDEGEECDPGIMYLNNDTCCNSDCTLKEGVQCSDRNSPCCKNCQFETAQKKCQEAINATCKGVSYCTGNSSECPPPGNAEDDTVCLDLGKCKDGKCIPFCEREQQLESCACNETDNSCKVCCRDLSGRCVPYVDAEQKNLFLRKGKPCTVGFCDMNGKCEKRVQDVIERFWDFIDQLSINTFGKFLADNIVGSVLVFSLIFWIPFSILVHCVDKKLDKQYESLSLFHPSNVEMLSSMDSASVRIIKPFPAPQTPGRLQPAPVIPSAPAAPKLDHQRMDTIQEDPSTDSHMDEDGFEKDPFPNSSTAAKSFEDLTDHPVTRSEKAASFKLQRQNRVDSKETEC
# Chain of 5-HT3 (P35563 24-483): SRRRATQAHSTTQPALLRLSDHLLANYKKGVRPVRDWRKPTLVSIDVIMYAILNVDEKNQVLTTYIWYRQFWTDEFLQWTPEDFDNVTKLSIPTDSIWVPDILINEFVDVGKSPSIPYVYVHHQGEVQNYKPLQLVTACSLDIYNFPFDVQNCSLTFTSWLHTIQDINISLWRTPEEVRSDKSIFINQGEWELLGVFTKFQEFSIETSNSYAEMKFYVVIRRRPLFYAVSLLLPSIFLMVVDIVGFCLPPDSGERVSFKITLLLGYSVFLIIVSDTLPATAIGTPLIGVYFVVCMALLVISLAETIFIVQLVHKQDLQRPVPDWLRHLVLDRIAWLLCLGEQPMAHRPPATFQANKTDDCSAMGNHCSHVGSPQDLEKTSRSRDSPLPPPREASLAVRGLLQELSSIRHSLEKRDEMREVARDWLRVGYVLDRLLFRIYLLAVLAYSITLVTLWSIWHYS
# Chain of D2 (P61169 whole entry): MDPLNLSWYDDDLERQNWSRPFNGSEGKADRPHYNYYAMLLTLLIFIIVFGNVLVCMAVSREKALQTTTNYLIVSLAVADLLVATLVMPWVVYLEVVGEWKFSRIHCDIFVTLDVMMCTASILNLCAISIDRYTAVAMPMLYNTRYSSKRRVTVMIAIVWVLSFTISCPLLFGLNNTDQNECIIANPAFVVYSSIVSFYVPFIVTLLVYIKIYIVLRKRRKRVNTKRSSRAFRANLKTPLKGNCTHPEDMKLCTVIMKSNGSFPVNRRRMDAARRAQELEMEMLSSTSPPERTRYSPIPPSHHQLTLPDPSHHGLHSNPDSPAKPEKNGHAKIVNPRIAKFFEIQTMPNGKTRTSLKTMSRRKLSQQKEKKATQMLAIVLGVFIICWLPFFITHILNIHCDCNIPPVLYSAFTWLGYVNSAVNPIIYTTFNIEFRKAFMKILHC
compound,measurement,setting,value
"c1ccc(-c2ncc3cc(-n4ccnc4)ccc3n2)cc1 [CR4056, 2-phenyl-6-(1H-imidazol-1yl)quinazoline]",Activity in enzyme characterization panel,cycooxygenase-2 (COX2),inactive
same,Cardiovascular effects,conscious dog,slight hypertensive effects associated with tachycardia
same,inhibition at 10 µM,[1],19%
same,Reversal of the decrease in withdrawal threshold caused by capsaicin,"[2]; 10 mg/kg oral, P < 0.001 versus vehicle",significantly reversed
same,Reversal of the effect of capsaicin,[2]; 30 mg/kg oral,completely reversed
same,"ED50, capsaicin-induced mechanical hyperalgesia, CR4056 alone",[2]; p.o.,4.13 mg/kg
same,"ED100, capsaicin-induced mechanical hyperalgesia",[2]; p.o.,17.9 mg/kg
same,inhibition at 10 µM,D2,25%
same,Activity in enzyme characterization panel,[3],inactive
same,Diuretic effect,rats,dose-dependent diuretic effect
same,IC50,human recombinant MAO-B,> 10000 nM
same,Times less active as inhibitor of MAO-B activity than of MAO-A,human recombinant MAO-B; human recombinant enzymes,about 100 times
same,Locomotor activity levels in open field test,[4],no statistical differences
same,Performance in rotarod test,[5],did not cause a deterioration
same,Activity in enzyme characterization panel,[6],inactive
same,inhibition at 10 µM,5-HT3,28%
same,"Effect on NE levels, plasma",[7]; oral 20 mg/kg,No effect
same,"Effect on NE levels, lumbar spinal cord","[7]; single oral dose 20 mg/kg, two hours after dosing",not statistically significant
same,"Increase of endogenous NE levels, parieto-occipital cortex","[7]; single oral dose 20 mg/kg, two hours after dosing, versus vehicle",68.2% ± 14.1%
same,"Increase of NE levels, cerebral cortex",[7]; [9],63.1% ±4.2%
same,"Increase of NE levels, lumbar spinal cord",[7]; [9],51.3% ± 6.7%
same,Reversal of acidic saline induced allodynia,[8]; 20 and 60 mg/kg oral,completely reversed
same,"Mechanical threshold (grams) ± SEM, left paw (SX)",[8]; 6 mg/kg,27.9 ± 1.1 grams
same,"Mechanical threshold (grams) ± SEM, right paw (DX)",[8]; 6 mg/kg,28.3 ± 1.9 grams
same,"Mechanical threshold (grams) ± SEM, left paw (SX)",[8]; 20 mg/kg,37.1 ± 0.8 grams
same,"Mechanical threshold (grams) ± SEM, right paw (DX)",[8]; 20 mg/kg,38.4 ± 1.7 grams
same,"Mechanical threshold (grams) ± SEM, left paw (SX)",[8]; 60 mg/kg,39.2 ± 1.6 grams
same,"Mechanical threshold (grams) ± SEM, right paw (DX)",[8]; 60 mg/kg,37.4 ± 2.1 grams
same,"10 μM CR4056 (% effect), inhibition of specific binding",I2,66%
same,Respiratory effects,conscious rat,tachypnea associated with a respiratory stimulant effect
same,inhibition at 10 µM,I1,23%
same,IC50,imidazoline I2 receptor,596 ± 76 nM
same,Activity in enzyme characterization panel,TNF-α converting enzyme,inactive
same,Activity in enzyme characterization panel,carbonic anhydrase II,inactive
same,"10 μM CR4056 (% effect), inhibition of specific binding",BDZ (central),21%
same,Activity in enzyme characterization panel,PI 3-Kβ,inactive
same,IC50,human recombinant MAO-A,203 ± 10.3 nM
same,Concentrations for inhibition of MAO-B specific binding relative to MAO-A,"MAO-B; rat cerebral membranes, [3H]Ro 19-6327 15 nM",two orders of magnitude higher
same,inhibition at 10 µM,"MAO-B; read-out: 10 μM CR4056 (% effect), inhibition of specific binding",35%
same,Activity in enzyme characterization panel,human mTOR kinase,inactive

# From paper PMC3100226 (Journal of Pain Research, 2011)
